We go through ten molecules from paper PMC7904233 (Journal of medicinal chemistry, 2020).

The subject of test [1] is ERα. It is filed as cell-based, human.
Test [2] concerns pRESTV. Type of test: cell-based, ebolavirus Reston.
Test [3] deals with pTFV. It is filed as cell-based, ebolavirus Tai Forest.
Test [4] deals with pMLAV. It is filed as cell-based, Měnglà virus.
Test [5] concerns pAIV-H5N1. Type of test: cell-based, H5N1 avian influenza virus.
Test [6] has as its system pVSV. It is filed as cell-based, vesicular stomatitis virus.
The test system of test [7] is infectious EBOV Zaire (Kikwit variant). It is filed as cell-based, Zaire ebolavirus.
The test system of test [8] is pEBOV Zaire (Mayinga variant). In words: microbe, parasite or virus in culture. The following applies: for IC50: read-out: IC50 (μM) pEBOV. Type of test: cell-based, Zaire ebolavirus.
Test [9] has as its system pMARV (Musoke variant). Description: microbe, parasite or virus in culture. The following applies: read-out: IC50 (μM) pMARV. It is filed as cell-based, Marburg virus.
Test [10] concerns ER. The following applies: cited from earlier work; for Kd: read-out: Kd for ER.
Test [11] relates to infectious MARV (Angola variant). Type of test: cell-based, Marburg virus.
Where [12] appears, read: Human immunodeficiency virus 1, A549, 48 h.

Where two headings read alike, the source gives them in different places. Some results are limits rather than exact numbers.

With `CC/C(=C(/c1ccc(NC(=O)C2CCN(C)C2)cc1)c1ccc(OCCN2CCCC2)cc1)c1ccccc1` (stereo not drawn) [Compound 32, (E)-1-methyl-N-(4-(2-phenyl-1-(4-(2-(pyrrolidin-1-yl)ethoxy)phenyl)but-1-en-1-yl)phenyl)pyrrolidine-3-carboxamide], the “antagonist activity at ER (in words)” value in test [1] is “no antagonist activity”. Besides, the “inhibition of viral entry (in words)” value in test [2], in test [3] and in test [4] was “improved potency” each time. Further, the “inhibition of pAIV-H5N1 (in words)” value in [5] was “Neither compounds showed appreciable inhibition”. For the same molecule, the “inhibition of pVSV (in words)” value in test [6] is “Neither compounds showed appreciable inhibition”.
Take `CC/C(=C(/c1ccc(N)cc1)c1ccc(OCCN2CCCC2)cc1)c1ccccc1` [Compound 27, (E)-4-(2-phenyl-1-(4-(2-(pyrrolidin-1-yl)ethoxy)phenyl)but-1-en-1-yl)aniline]: the “fold weaker than 9” value in test [7] is listed as 10 fold.
One may read the IC50 as the concentration that gives 50% inhibition. Turning to `COc1ccc2c(c1)CCC(c1ccccc1)=C2c1ccc(OCCN2CCCC2)cc1` [Compound 6, Nafoxidine], the half-maximal inhibitory concentration (IC50) in test [8] (setting [12]) stood at 0.1 ± 0.009 µM.
Same read-out and setting: with `CN(C)CCOc1ccc(/C(=C(/CCCl)c2ccccc2)c2ccccc2)cc1` [Compound 1, Toremifene] the figure was below 0.1 µM.
As for `CC/C(=C(/c1ccc(NCCN2CCCC2)cc1)c1ccc(OCCN2CCCC2)cc1)c1ccccc1` [Compound 28, (E)-4-(2-phenyl-1-(4-(2-(pyrrolidin-1-yl)ethoxy)phenyl)but-1-en-1-yl)-N-(2-(pyrrolidin-1-yl)ethyl)aniline], in [9] (setting [12]), the IC50 is above 12.5 µM.
Take `CC/C(=C(\c1ccccc1)c1ccc(OCCN(C)C)cc1)c1ccccc1` [Compound 5, Tamoxifen]: in test [10], the ER affinity is reported as 13.8 nM.
For the molecule Acolbifene [Compound 10], in test [8], the “fold weaker than 1” value is recorded as “more than 20 fold” and the IC50 was found to be 1.5 ± 0.3 µM.
In the case of “(E)-1-methyl-N-(4-(2-phenyl-1-(4-(2-(pyrrolidin-1-yl)ethoxy)phenyl)but-1-en-1-yl)phenyl)piperidine-4-carboxamide [Compound 30]”, the IC50 was 0.01 ± 0.005 µM in [8], 0.54 ± 0.05 µM in [9], 0.09 ± 0.03 µM in test [7] (read-out: IC50 (μM) EBOV) and 0.64 ± 0.12 µM in test [11] (read-out: IC50 (μM) MARV). In addition, the “fold more potent than 1” value was found to be 10 fold in [7] and 6 fold in test [11]. For the same molecule, in test [1], the “antagonist activity at ER (in words)” value is on record as “no antagonist activity”. In addition, the “inhibition of viral entry (in words)” value in test [2], in [3] and in test [4] was “improved potency” in each case. The “inhibition of pAIV-H5N1 (in words)” value in test [5] was “Neither compounds showed appreciable inhibition”. In test [6], the “inhibition of pVSV (in words)” value is listed as “Neither compounds showed appreciable inhibition”.
For orientation: Kd means the concentration at which binding is half-saturated. With `Cc1c(-c2ccc(O)cc2)nn(-c2ccc(O)cc2)c1-c1ccc(OCCN2CCCCC2)cc1` [Compound 23, MPP], the dissociation constant (Kd) in test [10] was 1.8 nM.
As to `Cc1c(-c2ccc(O)cc2)n(Cc2ccc(OCCN3CCCCCC3)cc2)c2ccc(O)cc12` [Compound 22, Bazedoxifene], in test [10], the dissociation constant Kd was […].
